In patent publication US5208344A, “Naphthalenepropionic acid derivatives as anti-inflammatory/antiallergic agents” (American Home Products Corporation, priority 1991, dated 1993):
Structures can show the parent of a compound that is named as a salt.

How the values were obtained:
5-lipoxygenase = molecular target: T1, 5-lipoxygenase (Rattus norvegicus, UniProt P12527); assay: inhibition of 5-HETE synthesis by rat glycogen elicited polymorphonuclear leukocytes; format: cell-based; conditions: 10 μM, rat PMN, negative = potentiation of 5-HETE synthesis; for inhibition at 10 µM: read-out: % Inhibition of 5-LO (as 5-HETE)
T1 construct: Peritoneal PMN are obtained from female Wistar rats (150-250 g); endogenous in cells; host or cells: rat glycogen-elicited peritoneal polymorphonuclear leukocytes, intact
T1 sequence (P12527 1-673): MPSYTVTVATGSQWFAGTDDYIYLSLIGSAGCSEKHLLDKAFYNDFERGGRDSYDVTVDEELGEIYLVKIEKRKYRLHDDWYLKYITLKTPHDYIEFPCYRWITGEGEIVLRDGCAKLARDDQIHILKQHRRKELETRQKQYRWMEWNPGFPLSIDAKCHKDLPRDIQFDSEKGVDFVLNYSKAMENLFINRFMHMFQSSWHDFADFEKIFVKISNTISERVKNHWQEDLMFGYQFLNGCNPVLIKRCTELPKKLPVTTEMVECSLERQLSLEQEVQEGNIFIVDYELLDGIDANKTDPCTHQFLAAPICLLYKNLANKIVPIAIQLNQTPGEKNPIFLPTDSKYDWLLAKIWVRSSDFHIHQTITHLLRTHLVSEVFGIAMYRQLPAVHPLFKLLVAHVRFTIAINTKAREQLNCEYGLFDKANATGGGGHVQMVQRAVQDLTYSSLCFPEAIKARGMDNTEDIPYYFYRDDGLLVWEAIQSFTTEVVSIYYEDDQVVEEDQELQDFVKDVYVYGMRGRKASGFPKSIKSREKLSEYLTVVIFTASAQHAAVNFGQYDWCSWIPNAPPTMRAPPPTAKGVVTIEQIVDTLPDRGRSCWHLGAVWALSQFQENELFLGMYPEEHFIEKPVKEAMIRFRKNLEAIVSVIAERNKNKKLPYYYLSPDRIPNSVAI
Procedure, shortened: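 Peritoneal PMN from female Wistar rats given i.p. glycogen 24 h earlier were preincubated with compound for 10 min at 37° C (2×10^7 cells/ml, 10 mM L-cysteine). They were then stimulated 10 min with 10 μM A23187 plus 0.5 μM [14C]arachidonic acid. 5-HETE was separated by TLC and quantified by scintillation.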

cyclooxygenase = assay: inhibition of synthesis of cyclooxygenase products TxB2 and PGE2 (rat polymorphonuclear leukocytes); format: cell-based; conditions: 10 μM, rat PMN; for % Inhibition of CO (as PGE2): negative = potentiation of PGE2 synthesis
Procedure, shortened: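 Glycogen-elicited peritoneal PMN from female Wistar rats, 2×10^7 cells/ml in HBSS with Ca^++, Mg^++ and 10 mM L-cysteine, preincubated with compound 10 min at 37° C. Stimulated 10 min with A23187 (10 μM) plus 0.5 μM [14C] arachidonic acid; TxB2 and PGE2 quantified by TLC, autoradiography and scintillation counting.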

[1] = tested on: ovalbumin-induced bronchoconstriction; assay: inhibition of antigen (ovalbumin)-induced bronchoconstriction in anesthetized guinea pigs; format: in vivo; conditions: orally administered 4 hours before induction, guinea pig, 240 min
Description: The compounds of the invention are tested to measure their in vivo ability to inhibit the bronchoconstriction induced in anesthetized guinea pigs by exogenously administered antigen.
Male Hartley guinea pigs (400-700 gm) are sensitized three weeks prior to antigen (ovalbumin-OA) challenge as follows: each guinea pig is given two intramuscular injections--0.35 ml of Grade V OA, 50 mg/ml, into each hindlimb.
Guinea pigs, fasted overnight but allowed water adlibitum, are anesthetized with 1.2 g/kg of urethane (intraperitoneal). Supplemental does of […] of urethane are administered intraperitoneally as needed. One carotid artery and one jugular vein are cannulated to allow for the monitoring of blood pressure and the administration of drugs, respectively. A duodenal cannula is inserted for intraduodenal dosing studies. The trachea of each animal is cannulated and connected to a Harvard respirator. […] Respiratory overflow pressure is measured from a side arm off the tracheal cannula which is connected via a Gould or Beckman pressure transducer to a suitable strip chart recorder. […]
Test compounds are administered intravenously, perorally, or intraduodenally at appropriate times prior to OA challenge. […] Control experiments are used to determine the effects of solvents on the measured parameters, and test data is corrected for any significant solvent effects.
Bronchoconstriction is assessed as increases in respiratory overflow pressure (cm H2 O). Changes in blood pressure (mm Hg) are also recorded.
Test compound-induced changes in the respiratory overflow pressure are assessed as percent changes from control experiments. […] The net change in overflow pressure is measured 5 minutes after antigen challenge and is calculated as follows. […] The percent change value for the drug treated group versus the control group is calculated as follows: […]

[2] = tested on: acute gastroirritation induced by naproxen; assay: cytoprotective activity against NSAID (naproxen)-induced acute gastroirritation in rats; format: in vivo, rat; conditions: drug 100 mg/kg peroral 1 hour before naproxen 25 mg/kg
Description: The assay of Example 44 is also used to measure the cytoprotective activity of the compounds against acute gastroirritation induced by a nonsteroidal anti-inflammatory drug (NSAID).

LTD4 = molecular target: T2, LTD4 (Cavia porcellus, UniProt Q2NNR5); assay: inhibition of LTD4-induced bronchospasm in guinea pigs; format: in vivo; conditions: 25 mg/kg intraduodenally, 10 minutes before LTD4; guinea pig
T2 construct: isolated guinea pig trachea; from tissue; host or cells: guinea pig tracheal rings
T2 sequence (Q2NNR5 1-340): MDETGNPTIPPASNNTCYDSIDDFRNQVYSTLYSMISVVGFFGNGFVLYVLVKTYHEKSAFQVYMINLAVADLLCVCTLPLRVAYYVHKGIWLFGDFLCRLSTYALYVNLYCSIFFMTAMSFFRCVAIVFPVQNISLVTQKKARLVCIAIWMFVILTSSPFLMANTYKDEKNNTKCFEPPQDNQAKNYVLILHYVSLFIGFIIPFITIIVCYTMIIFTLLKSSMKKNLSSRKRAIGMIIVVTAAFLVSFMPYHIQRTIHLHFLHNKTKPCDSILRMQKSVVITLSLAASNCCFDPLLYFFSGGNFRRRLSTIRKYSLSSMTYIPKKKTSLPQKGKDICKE
Description: The assay of this Example measures the in vivo ability of the compounds of the invention to inhibit the bronchospasm induced in guinea pigs by the exogenously administered leukotrienes C4 and/or D4.
Male Hartley strain guinea pigs (350-600 g) are anesthetized with pentobarbital sodium (50 mg/kg, i.p.). The jugular vein is cannulated for injection of drugs and the carotid artery for monitoring blood pressure. The trachea is cannulated for artificial ventilation by a miniature Starling pump and for indirect measurement of respiratory volume changes. The animals are then pretreated with succinylcholine (2 mg/kg i.v.) and indomethacin (10 mg/kg i.v.) in trizma 8.3 buffer, 9 minutes prior to leukotriene challenge. Submaximal bronchoconstrictor responses are established in control animals by varying the dose-levels of leukotriene. Intravenous dose-levels for LTC4 range from 0.4 to 0.6 μg/kg and for LTD4 the range is from 0.3 to 0.5 μg/kg. The aerosol bronchoprovocation dose for LTC4 is generated from 1.6 μM solution and for LTD4 from a 2.0 μM solution.
Test drugs (dissolved in a solvent such as propylene glycol, polyethylene glycol 400 or saline) are administered either intraduodenally, by aerosol or intragastrically at 2 or 10 minutes before induction of bronchospasm by administration of either LTC4 or LTD4 at the predetermined dose-levels. Aerosols of soluble drugs or leukotrienes are produced in-line for 10 seconds only by actuation of an ultrasonic nebulizer (Monaghan). Aerosolized drug dosage is expressed in terms of solution concentration and by a fixed aerosol exposure time (approximately 10 seconds). Control animals receive solvent (2 ml/kg i.d. or appropriate aerosol) in place of drug.
Respiratory volume changes are determined by a calibrated piston whose travel is recorded, via a linear transducer, on a Beckman Dynograph recorder. Maximal bronchoconstrictor volume is determined by clamping off the trachea at the end of the experiment. Overflow volumes at 1,3 and 5 minutes are obtained from the recorded charts.
Area under the volume overflow curve (AUC) is estimated, using the overflow values at 1,3 and 5 minutes, and expressed as a percentage of the maximal overflow AUC (equation 1): [formula] Drug effects are reported as percent inhibition of % max AUC values obtained from appropriate control animals (equation 2): [formula]
Student's t-test for unpaired data is used to determine statistical signifiance (p<0.05). IC50 values can also be determined by inverse prediction from linear regression liens through points between 10 and 90% inhibition.

carrageenan paw edema = assay: rat carrageenan paw edema assay; format: in vivo; conditions: 50 mg/kg peroral, 1 hour prior to carrageenan; rat
Description: The compounds of the invention are further tested in the rat carrageenan paw edema assay to determine their ability to inhibit the acute inflammatory response.
140-180 gm male Sprague-Dawley rats, in groups of 6 animals are injected subcutaneously in the right paw with 0.1 ml of 1% carrageenan at zero time. Mercury plethysmographic readings (ml) of the paw are made at zero time and 3 hours later. Test compounds are suspended or dissolved in 0.5% methylcellulose and given perorally 1 hour prior to carrageenan administration.
The increase in paw volume (edema in ml.) produced by the carrageenan is measured. […] Unpaired Student's t-test is used to determine statistical significance.

SMILES: C[C@H](C(=O)O)c1ccc2cc(OCc3ccc4ccccc4n3)ccc2c1 [Example 7, S-(α)-α-Methyl-6-(2-quinolinylmethoxy)-2-naphthaleneacetic acid]
- inhibition at 10 µM (5-lipoxygenase): 100%
- % Inhibition of CO (as PGE2) (cyclooxygenase): -17%
- ED50 (ovalbumin-induced bronchoconstriction) [1]: 100 mg/kg
- % of Rats With Lesions [2]: 87.5%
- Comments (protection) [2]: no protection

SMILES: C[C@H](C(=O)O)c1ccc2cc(OCc3ccc4ccccc4n3)ccc2c1 [Example 16, S-(+)-α-Methyl-6-(2-quinolinylmethoxy)-2-naphthaleneacetic acid, sodium salt]
- % Inhibition of 5-LO (as 5-HETE) (5-lipoxygenase; sodium salt): 100%
- % Inhibition of CO (as PGE2) (cyclooxygenase; sodium salt): -13%
- ED50 (ovalbumin-induced bronchoconstriction) ([1]; sodium salt): 15 mg/kg

SMILES: CC(C(=O)O)c1ccc2cc(OCc3ccccn3)ccc2c1 (stereo not drawn) [Example 4, α-Methyl-6-(2-pyridinylmethoxy)-2-naphthaleneacetic acid]
- inhibition at 10 µM (5-lipoxygenase): 82%
- % Inhibition of CO (as TxB2) (cyclooxygenase): 12%
- % Inhibition of CO (as PGE2) (cyclooxygenase): 18%
- % Inhibition (LTD4-induced bronchospasm) (LTD4): 52%
- % Inhibition at 50 mg/kg (peroral) (carrageenan paw edema): 30%

SMILES: CC(C(=O)O)c1ccc2cc(OCc3nc4ccccc4n3C)ccc2c1 (stereo not drawn) [Example 3, α-Methyl-6-[(1-methyl-1H-benzimidazol-2-yl)-methoxy]-2-naphthaleneacetic acid]
- inhibition at 10 µM (5-lipoxygenase): 24%
- % Inhibition of CO (as TxB2) (cyclooxygenase): 15%
- % Inhibition of CO (as PGE2) (cyclooxygenase): -29%
- % Inhibition (LTD4-induced bronchospasm) (LTD4): 80%
- % Inhibition at 50 mg/kg (peroral) (carrageenan paw edema): 32%
